Key:
[1] = Dose escalation study of αGalCer; format: in vivo
From the text: There is a little, if ever, chance to show a slight systemic side effect (Giaccone et al., Clin. Cancer Res., 8: 3702, 2002).

[2] = rodents and apes; cited from earlier work
[3] = 2200 μg/kg, mouse; cited from earlier work
[4] = clinical trial, systemic administration; cited from earlier work

Question: Which results are given for CCCCCCCCCCCCCCCCCCCCCCCCCC(=O)N[C@@H](CO[C@H]1O[C@H](CO)[C@H](O)[C@H](O)[C@H]1O)[C@H](O)[C@H](O)CCCCCCCCCCCCCC [αGalCer, Alpha-galactosylceramide]?
Answer: dose-limiting toxicity [1]: did not cause dose-limiting toxicity; toxicity [2]: doesn't seem to induce toxicity; side effects [3]: No side effects; side effect [4]: a light headache
